Data on five molecules can be found in patent publication US12054463B2, “Radiolabeled microtubule imaging compounds and uses thereof” (The Trustees of Columbia University in the City of New York, priority 2017, dated 2024).

pKi: −log10 of the molar value.

The target in one data set is SERT (Homo sapiens, UniProt P31645). Kind of data set: Affinity to brain targets (panel). The format is binding. Conditions: SERT: serotonin transporter.
The target in another data set is Sigma1 (Homo sapiens, UniProt Q99720). Kind of data set: Affinity to brain targets (panel). The format is binding.
For another data set, the target named is NK. In words: Affinity to brain targets (panel). The following applies: NK: neurokinin. The format is binding.
The next data set addresses α2A-2C. In words: Affinity to brain targets (panel). The format is binding.
The next data set has as its target GABA. In words: Affinity to brain targets (panel). The format is binding.
For the next data set, the target named is mGluR. Kind of data set: Affinity to brain targets (panel). The format is binding. Conditions: mGluR (mGluRs): metabotropic glutamate receptors.
A further data set addresses H3, H4. Kind of data set: Affinity to brain targets (panel). The format is binding. Conditions: H3, H4: histamine.
The target in a further data set is NET (Homo sapiens, UniProt P23975). In words: Affinity to brain targets (panel). The format is binding. Conditions: NET: norepinephrine transporter.
A further data set deals with HERG (Homo sapiens, UniProt Q12809). Kind of data set: Affinity to brain targets (panel). The format is binding. The following applies: HERG: human ether-a-go-go.
Another data set has as its target D1-D5. Kind of data set: Affinity to brain targets (panel). The format is binding.
In a further data set the target is KA. In words: Affinity to brain targets (panel). The format is binding. Conditions: KA (KAR): Kainate.
The target of the next data set is Na+ Channel. In words: Affinity to brain targets (panel). The format is binding.
The target of a further data set is MOR (Homo sapiens, UniProt P35372). Kind of data set: Affinity to brain targets (panel). The format is binding. Conditions: MOR: mu opioid receptor.
In a further data set the target is H1 (Homo sapiens, UniProt P35367). In words: Affinity to brain targets (panel). The format is binding. Conditions: H1: histamine.
In another data set the target is β1-3. In words: Affinity to brain targets (panel). The format is binding.
A further data set addresses NOP (Homo sapiens, UniProt P41146). Kind of data set: Affinity to brain targets (panel). The format is binding.
The target in another data set is DOR (Homo sapiens, UniProt P41143). Kind of data set: Affinity to brain targets (panel). The format is binding. The following applies: DOR: delta opioid receptors.
The next data set concerns the target NT. In words: Affinity to brain targets (panel). Conditions: NT: neurotrophin. The format is binding.
Another data set concerns the target KOR (Homo sapiens, UniProt P41145). In words: Affinity to brain targets (panel). The format is binding. The following applies: KOR: kappa opioid receptors.
In the next data set the target is I. In words: Affinity to brain targets (panel). The format is binding.
For a further data set, the target named is 5-HT3-7. Kind of data set: Affinity to brain targets (panel). The format is binding.
For the next data set, the target named is PBR (Homo sapiens, UniProt P30536). In words: Affinity to brain targets (panel). The format is binding.
The target of the next data set is AMPA. In words: Affinity to brain targets (panel). The format is binding.
For another data set, the target named is Adenosine. In words: Affinity to brain targets (panel). The format is binding. Conditions: Adenosine (A).
In the next data set the target is EP. Kind of data set: Affinity to brain targets (panel). The format is binding. Conditions: EP: prostanoid receptors.
A further data set deals with PKC. In words: Affinity to brain targets (panel). The format is binding. Conditions: PKC: Protein kinase C.
The target in the next data set is VMAT. In words: Affinity to brain targets (panel). Conditions: VMAT (VMAT 1,2): vesicular monoamine transporter. The format is binding.
The target of a further data set is MDR1 (Homo sapiens, UniProt P08183). In words: Affinity to brain targets (panel). The format is binding. The following applies: MDR1: multidrug resistance.
A further data set addresses α1A-1C. In words: Affinity to brain targets (panel). The format is binding.
In another data set the target is NMDA. Kind of data set: Affinity to brain targets (panel). The format is binding.
Another data set addresses DAT (Homo sapiens, UniProt Q01959). Kind of data set: Affinity to brain targets (panel). The following applies: DAT: dopamine transporters. The format is binding.
Another data set concerns the target CB1, CB2. In words: Affinity to brain targets (panel). The format is binding.
The target in another data set is Sigma2 (Homo sapiens, UniProt Q5BJF2). In words: Affinity to brain targets (panel). The format is binding. The following applies: Sigma2 (Sigma 2).
Another data set deals with BZP. In words: Affinity to brain targets (panel). The format is binding. Conditions: BZP: benzodiazepine.
The target in another data set is M. Kind of data set: Affinity to brain targets (panel). The format is binding. The following applies: M: muscarinic.
The target in the next data set is T1, Oxytocin (Homo sapiens, UniProt P30559).
T1 sequence (P30559 1-389): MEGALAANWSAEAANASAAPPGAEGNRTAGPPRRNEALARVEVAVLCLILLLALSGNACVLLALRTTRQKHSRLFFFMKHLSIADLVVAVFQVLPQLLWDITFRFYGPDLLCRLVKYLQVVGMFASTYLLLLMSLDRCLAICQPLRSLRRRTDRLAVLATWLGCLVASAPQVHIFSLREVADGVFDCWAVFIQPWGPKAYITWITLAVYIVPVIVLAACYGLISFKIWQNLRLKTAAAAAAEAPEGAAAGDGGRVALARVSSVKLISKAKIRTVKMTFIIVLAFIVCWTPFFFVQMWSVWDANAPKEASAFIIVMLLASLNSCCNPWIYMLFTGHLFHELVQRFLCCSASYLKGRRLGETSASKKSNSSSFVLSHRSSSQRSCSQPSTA
In words: Affinity to brain targets (panel). The format is binding.

In another data set the target is Smoothened (Homo sapiens, UniProt Q99835). Kind of data set: Affinity to brain targets (panel). The format is binding.
The target in a further data set is 5-HT1A-1E. In words: Affinity to brain targets (panel). The format is binding.
For another data set, the target named is H2 (Homo sapiens, UniProt P25021). In words: Affinity to brain targets (panel). Conditions: H2: histamine. The format is binding.
For the next data set, the target named is Ca++ channel. In words: Affinity to brain targets (panel). The format is binding.
In another data set the target is 5-HT2A-2C. Kind of data set: Affinity to brain targets (panel). The format is binding.
The conditions of data set [1]: references 12-14; cited from earlier work.
For the next data set, the system named is panel of kinases. The following applies: cited from earlier work.
The subject of the next data set is tumor xenografts. The following applies: references 12-14; cited from earlier work.
The next data set relates to brain MTs. Kind of data set: MicroPET in mice brain. The format is in vivo. The following applies: for BBB penetration and brain distribution: microPET, mice. The protocol: Blocking with unlabeled MPC-6827 and HD-800 (5 mg/kg/i.v) 20 minute prior to radioligand administration indicates specific binding of radiotracer to brain MTs. […] Time activity curves (TACs) further confirm the washout of [^11C]HD-800 in mice brain and excellent specific binding with unlabeled HD-800 and MPC-6827 as blocking agents (FIG. 9).^23-24
The distribution pattern of [^18F]FEMPC-6827 in the mice brain is similar to that of [^11C]MPC-6827 and [^11C]HD-800.

H1, sequence (P35367 whole entry): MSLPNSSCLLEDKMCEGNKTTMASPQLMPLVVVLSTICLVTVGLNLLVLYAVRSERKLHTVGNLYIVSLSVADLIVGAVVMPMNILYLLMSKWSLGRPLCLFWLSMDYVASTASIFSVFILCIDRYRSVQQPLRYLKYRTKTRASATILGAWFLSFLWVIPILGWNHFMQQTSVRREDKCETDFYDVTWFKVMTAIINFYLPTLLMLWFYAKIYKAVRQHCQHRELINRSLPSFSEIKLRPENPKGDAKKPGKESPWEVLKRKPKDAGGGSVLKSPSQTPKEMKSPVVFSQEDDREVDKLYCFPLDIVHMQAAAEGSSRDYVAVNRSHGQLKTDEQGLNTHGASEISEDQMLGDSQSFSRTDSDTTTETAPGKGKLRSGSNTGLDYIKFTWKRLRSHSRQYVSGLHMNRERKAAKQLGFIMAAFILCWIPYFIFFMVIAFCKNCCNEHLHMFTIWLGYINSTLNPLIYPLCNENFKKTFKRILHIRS
Smoothened, sequence (Q99835 28-787): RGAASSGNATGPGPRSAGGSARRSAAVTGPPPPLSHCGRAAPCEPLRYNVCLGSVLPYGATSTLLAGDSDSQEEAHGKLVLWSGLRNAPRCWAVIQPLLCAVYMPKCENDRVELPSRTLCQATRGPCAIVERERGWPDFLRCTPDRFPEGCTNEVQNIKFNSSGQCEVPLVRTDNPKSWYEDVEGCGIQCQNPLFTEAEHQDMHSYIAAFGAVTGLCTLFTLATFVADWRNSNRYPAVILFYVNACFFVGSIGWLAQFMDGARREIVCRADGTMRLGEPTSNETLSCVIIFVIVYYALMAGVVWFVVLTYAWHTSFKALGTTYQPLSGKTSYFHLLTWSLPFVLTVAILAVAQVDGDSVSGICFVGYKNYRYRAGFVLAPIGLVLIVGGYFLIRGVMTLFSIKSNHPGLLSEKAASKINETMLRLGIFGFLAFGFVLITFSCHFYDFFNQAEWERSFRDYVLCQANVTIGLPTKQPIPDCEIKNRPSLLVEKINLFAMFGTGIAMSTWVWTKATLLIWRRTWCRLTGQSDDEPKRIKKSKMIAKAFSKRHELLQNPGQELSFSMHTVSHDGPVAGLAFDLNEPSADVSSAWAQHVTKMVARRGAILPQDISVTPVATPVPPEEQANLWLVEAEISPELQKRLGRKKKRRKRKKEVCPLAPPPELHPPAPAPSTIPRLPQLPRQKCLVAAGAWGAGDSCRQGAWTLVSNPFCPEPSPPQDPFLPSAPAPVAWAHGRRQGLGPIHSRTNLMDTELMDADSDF
DAT, sequence (Q01959 whole entry, species assumed): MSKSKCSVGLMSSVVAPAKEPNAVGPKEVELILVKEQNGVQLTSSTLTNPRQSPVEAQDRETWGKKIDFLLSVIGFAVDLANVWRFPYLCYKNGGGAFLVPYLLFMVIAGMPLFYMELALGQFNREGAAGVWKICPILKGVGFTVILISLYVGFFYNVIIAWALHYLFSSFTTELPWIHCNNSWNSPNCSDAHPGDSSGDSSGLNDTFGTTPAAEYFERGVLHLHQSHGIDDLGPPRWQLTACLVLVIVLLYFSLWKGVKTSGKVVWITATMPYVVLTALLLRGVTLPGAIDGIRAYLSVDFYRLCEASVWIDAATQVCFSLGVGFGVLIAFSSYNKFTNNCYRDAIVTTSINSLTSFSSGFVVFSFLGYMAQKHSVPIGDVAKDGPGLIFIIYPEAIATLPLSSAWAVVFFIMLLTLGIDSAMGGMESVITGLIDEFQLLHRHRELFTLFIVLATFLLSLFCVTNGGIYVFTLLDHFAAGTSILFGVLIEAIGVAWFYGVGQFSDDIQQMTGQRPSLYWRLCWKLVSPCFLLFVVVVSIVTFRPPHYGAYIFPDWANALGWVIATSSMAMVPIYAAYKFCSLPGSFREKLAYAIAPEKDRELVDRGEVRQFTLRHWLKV
Sigma1, sequence (Q99720 whole entry): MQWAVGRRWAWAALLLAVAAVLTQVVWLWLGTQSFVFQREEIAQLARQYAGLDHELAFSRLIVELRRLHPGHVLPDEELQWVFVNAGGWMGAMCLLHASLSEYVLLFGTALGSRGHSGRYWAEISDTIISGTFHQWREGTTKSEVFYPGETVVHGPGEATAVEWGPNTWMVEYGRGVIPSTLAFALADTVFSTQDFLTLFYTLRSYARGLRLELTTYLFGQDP
SERT, sequence (P31645 whole entry, species assumed): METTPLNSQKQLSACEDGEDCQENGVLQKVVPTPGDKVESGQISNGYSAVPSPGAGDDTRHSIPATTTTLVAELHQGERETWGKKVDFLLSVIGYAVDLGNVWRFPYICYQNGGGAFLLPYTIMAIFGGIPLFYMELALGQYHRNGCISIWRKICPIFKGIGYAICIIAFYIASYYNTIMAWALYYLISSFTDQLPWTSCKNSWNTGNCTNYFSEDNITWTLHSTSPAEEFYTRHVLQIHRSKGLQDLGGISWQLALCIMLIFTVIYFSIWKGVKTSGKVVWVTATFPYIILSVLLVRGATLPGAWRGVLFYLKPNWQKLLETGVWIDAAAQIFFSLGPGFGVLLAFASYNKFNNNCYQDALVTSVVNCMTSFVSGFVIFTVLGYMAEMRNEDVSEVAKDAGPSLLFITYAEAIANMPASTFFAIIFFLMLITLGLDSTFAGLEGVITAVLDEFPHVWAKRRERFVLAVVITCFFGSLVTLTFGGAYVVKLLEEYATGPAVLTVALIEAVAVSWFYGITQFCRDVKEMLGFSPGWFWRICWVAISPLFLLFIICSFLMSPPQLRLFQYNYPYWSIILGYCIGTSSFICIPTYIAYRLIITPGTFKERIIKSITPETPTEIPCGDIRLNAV
KOR, sequence (P41145 whole entry): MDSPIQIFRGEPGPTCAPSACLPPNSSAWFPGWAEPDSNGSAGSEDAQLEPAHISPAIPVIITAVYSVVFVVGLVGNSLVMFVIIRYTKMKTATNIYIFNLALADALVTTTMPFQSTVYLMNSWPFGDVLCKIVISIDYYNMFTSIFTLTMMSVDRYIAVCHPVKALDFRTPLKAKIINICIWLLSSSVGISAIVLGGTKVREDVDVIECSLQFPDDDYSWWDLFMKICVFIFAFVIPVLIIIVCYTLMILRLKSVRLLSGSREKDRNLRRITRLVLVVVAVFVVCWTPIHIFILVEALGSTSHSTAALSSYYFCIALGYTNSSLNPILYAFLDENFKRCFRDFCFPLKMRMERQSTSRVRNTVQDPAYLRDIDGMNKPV
Sigma2, sequence (Q5BJF2 whole entry): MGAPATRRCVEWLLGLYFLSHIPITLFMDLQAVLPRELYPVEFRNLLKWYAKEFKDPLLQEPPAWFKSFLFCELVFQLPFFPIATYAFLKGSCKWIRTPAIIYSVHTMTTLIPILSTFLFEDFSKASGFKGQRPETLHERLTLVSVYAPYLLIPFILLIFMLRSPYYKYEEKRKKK
DOR, sequence (P41143 whole entry): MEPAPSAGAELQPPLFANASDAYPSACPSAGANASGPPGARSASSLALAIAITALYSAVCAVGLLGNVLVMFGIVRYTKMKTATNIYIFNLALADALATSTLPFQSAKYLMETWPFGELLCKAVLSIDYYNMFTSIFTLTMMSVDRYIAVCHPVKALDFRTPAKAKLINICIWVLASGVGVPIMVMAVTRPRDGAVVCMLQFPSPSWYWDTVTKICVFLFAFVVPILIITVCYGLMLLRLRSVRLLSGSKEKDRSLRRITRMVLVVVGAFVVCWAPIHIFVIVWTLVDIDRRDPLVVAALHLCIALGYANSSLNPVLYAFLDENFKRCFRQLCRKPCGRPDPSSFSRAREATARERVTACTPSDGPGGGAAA
HERG, sequence (Q12809 whole entry): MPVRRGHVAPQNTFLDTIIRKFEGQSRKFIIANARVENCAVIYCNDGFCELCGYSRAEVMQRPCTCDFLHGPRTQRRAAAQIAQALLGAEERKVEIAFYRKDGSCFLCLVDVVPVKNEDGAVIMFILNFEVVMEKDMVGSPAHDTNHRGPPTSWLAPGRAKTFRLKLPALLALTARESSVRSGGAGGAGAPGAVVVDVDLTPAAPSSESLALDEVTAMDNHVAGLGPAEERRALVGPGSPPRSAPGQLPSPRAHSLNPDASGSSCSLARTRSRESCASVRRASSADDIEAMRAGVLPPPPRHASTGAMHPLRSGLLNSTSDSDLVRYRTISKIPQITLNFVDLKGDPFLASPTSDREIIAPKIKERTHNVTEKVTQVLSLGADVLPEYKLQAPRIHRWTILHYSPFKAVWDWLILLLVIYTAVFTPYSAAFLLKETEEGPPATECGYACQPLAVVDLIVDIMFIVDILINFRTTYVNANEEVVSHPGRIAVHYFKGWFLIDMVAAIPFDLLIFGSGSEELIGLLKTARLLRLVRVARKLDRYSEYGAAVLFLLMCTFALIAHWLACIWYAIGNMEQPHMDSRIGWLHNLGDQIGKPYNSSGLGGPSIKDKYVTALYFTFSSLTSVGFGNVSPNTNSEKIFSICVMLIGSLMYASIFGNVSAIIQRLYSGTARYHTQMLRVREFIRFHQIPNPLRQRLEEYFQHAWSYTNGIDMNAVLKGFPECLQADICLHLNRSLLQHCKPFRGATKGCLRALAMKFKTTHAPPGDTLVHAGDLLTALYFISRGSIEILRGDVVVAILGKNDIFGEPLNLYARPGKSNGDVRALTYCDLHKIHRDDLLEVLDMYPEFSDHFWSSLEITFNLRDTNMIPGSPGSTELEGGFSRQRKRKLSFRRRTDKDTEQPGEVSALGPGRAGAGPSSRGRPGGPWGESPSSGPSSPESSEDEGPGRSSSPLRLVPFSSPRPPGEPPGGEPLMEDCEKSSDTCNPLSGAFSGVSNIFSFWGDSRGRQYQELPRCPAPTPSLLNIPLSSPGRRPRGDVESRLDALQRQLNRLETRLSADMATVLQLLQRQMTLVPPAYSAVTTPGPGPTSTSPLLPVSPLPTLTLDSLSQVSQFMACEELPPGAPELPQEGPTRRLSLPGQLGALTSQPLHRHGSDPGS
PBR, sequence (P30536 whole entry, species assumed): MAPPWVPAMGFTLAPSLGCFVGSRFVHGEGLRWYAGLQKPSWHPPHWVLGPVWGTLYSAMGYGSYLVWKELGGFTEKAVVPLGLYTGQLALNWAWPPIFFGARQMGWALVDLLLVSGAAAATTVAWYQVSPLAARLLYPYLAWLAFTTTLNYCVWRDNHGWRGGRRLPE

Broadly, the pKi is the negative decadic logarithm of the Ki, by convention in mol/L. For the molecule `Cc1nc(N(C)c2ccc(OCCF)cc2)c2c(C)coc2n1` [FE-HD-800], the pKi at SERT is less than 5.00; on Sigma1 it was 6.08; on NK, less than 5.00; on α2A-2C, less than 5.00; on GABA, less than 5.00; on mGluR, less than 5.00. For the same molecule, the pKi at H3, H4 was less than 5.00; on NET it was less than 5.00; on HERG, less than 5.00; on D1-D5 it was less than 5.00; on KA, less than 5.00; on Na+ Channel it was less than 5.00. Further, the pKi at MOR is less than 5.00; on H1, 5.47; at β1-3 it was less than 5.00; at NOP, less than 5.00; at DOR, less than 5.00; on NT, less than 5.00. The pKi on KOR, on I, on 5-HT3-7, on PBR, at AMPA and at Adenosine was less than 5.00 each time. The pKi on EP, at PKC, at VMAT, on MDR1, on α1A-1C and at NMDA was less than 5.00 in each case. Also, the pKi is less than 5.00 at DAT; less than 5.00 on CB1, CB2; 5.61 on Sigma2; less than 5.00 at BZP; less than 5.00 on M; less than 5.00 at Oxytocin. Further, the pKi on Smoothened, at 5-HT1A-1E, on H2, at Ca++ channel and on 5-HT2A-2C was less than 5.00 in each case.

In the case of `Cc1nc(N(C)c2ccc(OCCF)cc2)c2ccccc2n1` [FEMPC-6827], the pKi at SERT is less than 5.00; on Sigma1, 7.29; on NK, less than 5.00; on α2A-2C, less than 5.00; at GABA, less than 5.00; at mGluR, less than 5.00. Also, the pKi is less than 5.00 at H3, H4; less than 5.00 on NET; less than 5.00 on HERG; less than 5.00 at D1-D5; less than 5.00 on KA; less than 5.00 at Na+ Channel. The pKi at MOR is less than 5.00; on H1, 6.52; at β1-3 it was less than 5.00; on NOP it was less than 5.00; on DOR, less than 5.00; on NT, less than 5.00. The pKi on KOR is less than 5.00; at I it was less than 5.00; at 5-HT3-7 it was less than 5.00; at PBR, 5.80; at AMPA, less than 5.00; at Adenosine it was less than 5.00. The pKi at EP, at PKC, at VMAT, at MDR1, at α1A-1C and at NMDA was less than 5.00 each time. Further, the pKi on DAT is less than 5.00; on CB1, CB2, less than 5.00; at Sigma2 it was 5.61; on BZP, less than 5.00; on M, less than 5.00; on Oxytocin, less than 5.00. Also, the pKi was less than 5.00 on Smoothened; less than 5.00 on 5-HT1A-1E; 5.64 on H2; less than 5.00 at Ca++ channel; less than 5.00 on 5-HT2A-2C.

Regarding `COc1ccc2c(c1)NC(=O)CN2c1nc(C)nc2ccccc12` [WX-132-18B, 7-Methoxy-4-(2-methylquinazolin-4-yl)-3,4-dihydroquinoxalin-2(1H)-one], the BBB penetration entry in [1] is on record as “BBB penetrant”. Also, the “binding to a panel / variety of kinases” value in the data set with panel of kinases is given as “selective”. Also, the “tumor growth inhibition (TGI) compared with paclitaxel” value in the data set on tumor xenografts is reported as “higher tumor growth inhibition (TGI) than paclitaxel”.

Regarding `Cc1coc2ncnc(N(C)c3ccc(O[11CH3])cc3)c12` [[^11C]HD-800], in the data set with brain MTs, the “BBB penetration and brain distribution” value is reported as “penetrated the BBB followed by a homogeneous distribution in the mouse brain”. Further, in the data set with brain MTs (unlabeled MPC-6827 and HD-800 (5 mg/kg/i.v) 20 minute prior to radioligand), the “blocking of brain activity” value was “significant decreasing activity”.

For the molecule `Cc1nc(N(C)c2ccc(OCC[18F])cc2)c2ccccc2n1` [[^18F]FEMPC-6827], the “BBB penetration and brain distribution” value with brain MTs is “blood brain barrier penetration and accumulation in the brain”.
